From publication PMC6151435, “Bioactivity In Vitro of Quercetin Glycoside Obtained in Beauveria bassiana Culture and Its Interaction with Liposome Membranes” (Molecules : A Journal of Synthetic Chemistry and Natural …, 2017)

How the values were obtained:
COX-1 = biological target: T1, COX-1 (Ovis aries, UniProt P05979); assay: Inhibition of cyclooxygenase 1 (spectrophotometric, TMPD); format: biochemical, sheep; settings: Tris-HCl pH 8.0, room temperature
T1 construct: purchased Sigma-Aldrich
T1 sequence (P05979 25-600): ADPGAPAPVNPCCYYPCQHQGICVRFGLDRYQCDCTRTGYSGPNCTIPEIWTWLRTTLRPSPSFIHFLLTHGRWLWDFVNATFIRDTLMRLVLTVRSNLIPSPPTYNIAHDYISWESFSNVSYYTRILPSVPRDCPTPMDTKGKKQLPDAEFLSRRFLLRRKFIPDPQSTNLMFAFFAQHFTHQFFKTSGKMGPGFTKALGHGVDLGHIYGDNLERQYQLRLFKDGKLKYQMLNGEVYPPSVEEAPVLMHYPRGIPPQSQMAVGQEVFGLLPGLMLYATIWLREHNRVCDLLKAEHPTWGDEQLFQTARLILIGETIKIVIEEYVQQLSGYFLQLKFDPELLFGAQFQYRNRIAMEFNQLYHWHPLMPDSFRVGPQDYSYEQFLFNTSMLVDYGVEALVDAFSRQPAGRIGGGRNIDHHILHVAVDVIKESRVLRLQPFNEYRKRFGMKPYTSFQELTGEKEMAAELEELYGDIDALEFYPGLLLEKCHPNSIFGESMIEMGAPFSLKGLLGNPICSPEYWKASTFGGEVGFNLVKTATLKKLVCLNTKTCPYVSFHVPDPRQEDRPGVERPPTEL
From the text: The probes 1,6-diphenyl-1,3,5-hexatriene (DPH), 3-[p-(6-phenyl)-1,3,5-hexatrienyl]propionic acid (DPH-PA), Merocyanine 540 (MC540), and N,N,N-trimethyl-4-(6-phenyl-1,3,5-hexatrien-1-yl)phenylammonium p-toluenesulfonate (TMA-DPH) were purchased from Molecular Probes (Eugene, OR, USA). Tris (hydroxymethyl) aminomethane (Tris:HCl) were obtained from “Chempur” (Piekary Śląskie, Poland). Quercetin (Q) was purchased from Sigma-Aldrich. Yellow powder, ^1H-NMR (DMSO-d6) δH: 6.19 (1H, d, J = 2.1 Hz, H-6), 6.41 (1H, d, J = 2.1 Hz, H-8), 6.89 (1H, d, J = 8.5 Hz, H-5′), 7.54 (1H, dd, J = 8.5, 2.2 Hz, H-6′), 7.68 (1H, d, J = 2.2 Hz, H-2′). ^13C-NMR (DMSO-d6) δC: 93.2 (C-8), 98.0 (C-6), 102.9 (C-10), 114.9 (C-2′), 115.4 (C-5′), 119.8 (C-6′), 121.8 (C-1′), 135.6 (C-3), 144.9 (C-3′), 146.6 (C-2), 147.5 (C-4′), 156.0 (C-9), 160.6 (C-5), 163.7 (C-7), 175.7 (C=O).
This experiment, established on the basis of a modified method given in the work by Jang and Pezzuto [68], was conducted by a spectrophotometric measurement of inhibition of the cyclooxygenases’ activity COX-1 and COX-2. […] The concentrations of studied compounds fluctuated in the range 20–100 µM for Q 7-MeGlu and 5–50 µM for Q. Absorbance of the sample was followed for 3 min by measuring it at 1 min intervals, using a spectrophotometer at a wavelength of 611 nm (Cary 100 Bio, Varian) in relation to a reference sample. […]

[1] = system: T2, human serum albumin (HSA); assay: Binding to human serum albumin (fluorescence quenching); settings: for Ksv (Stern–Volmer quenching constant): pH 7.4
T2 construct: purchased Sigma-Aldrich
From the text: Fluorescence quenching induced by studied molecules is described using the well-known Stern-Volmer equation [53]:(1) F0/F=1+Kqτ0[Qu]=1+KSV[Qu] where: F0 and F are HSA fluorescence intensities before and after adding quencher, respectively, Kq is a bimolecular quenching constant, τ0 is life time of the fluorophore in the absence of quencher (the fluorescence life time of a biopolymer is about 5 × 10^−9 s, [Qu] is the quencher concentration, and KSV is the Stern–Volmer quenching constant (KSV = Kq × τ0). The plot of F0/F against [Qu] at 310 K is shown in Figure 3A,B. The Stern–Volmer plots are evidently linear in the 1–16 μM range of concentration for studied compounds.
The value of the binding constant Ka is crucial for understanding the distribution of the drug in plasma. A strong binding produces a decrease in plasma concentrations, […] the distribution and the pharmacological effect of the compound [55]. The apparent binding constant (Kb) and number of binding sites (n) can be calculated using the following equation:(2) log(F0−F/F)=logKb+nlog[Qu]
The interaction forces between a drug and a biomacromolecule may include hydrophobic forces, electrostatic interactions, van der Waals interactions, hydrogen bonds, etc. The thermodynamic parameters of binding reaction are the main evidence for confirming a binding force. In order to elucidate the binding mode, the binding constant for flavonoid–HSA complex formation was evaluated at four different temperatures. The thermodynamic parameters of the binding process can be calculated using the Van’t Hoff equation [60]:(3) lnKb=−ΔH/RT+ΔS/R
The enthalpy change ∆H is calculated on the basis of the slope of lnKb vs. […] plot. The free-energy change ΔG is estimated on the basis of the following equation:(4) ΔG=ΔH−TΔS=−RTlnKb where: ΔH ΔG and ΔS are enthalpy, free enthalpy and entropy change, respectively. R is the gas constant 8.314 J·mol^−1·K^−1.
Analysis of Q 7-MeGlu and Q interaction with human serum albumin (HSA) was performed according to the procedure described by Strugała et al.. The fluorescence measurements were performed on a Cary Eclipse fluorimeter equipped with 1.0 cm quartz cells and a thermostat bath. All quenching experiments were performed at 300, 305, 310 and 315 K for HSA in a phosphate buffer solution of pH 7.4 and final concentration 1.5 × 10^−5 M. The excitation wavelength was set at 280 nm (excitation of the Trp and Tyr), and the emission spectra were read at 285–460 nm. The excitation and emission slits were both set to 5 nm. Our method consisted in tracking the quenching of natural HSA fluorescence caused by Q 7-MeGlu and Q (of final concentrations 1, 2, 4, 6, 8, 10, 12, 14 and 16 µM) added successively. The stock solutions of Q 7-MeGlu and Q were prepared by dissolving in methanol. Control sample contained appropriate amount of methanol. […] The experiment was performed in three independent replicates (n = 3).

KSV compared with KSV for Q [1]	SMILES	IC50 (COX-1)	Ksv (Stern–Volmer quenching constant) ([1]; T 300 K)	Ksv (Stern–Volmer quenching constant) ([1]; T 305 K)	Ksv (Stern–Volmer quenching constant) ([1]; T 310 K)	Ksv (Stern–Volmer quenching constant) ([1]; T 315 K)
approximately four times lower	CO[C@H]1[C@H](O)[C@@H](O)[C@H](Oc2cc(O)c3c(=O)c(O)c(-c4ccc(O)c(O)c4)oc3c2)O[C@@H]1CO [Q 7-MeGlu, quercetin 7-O-β-D-(4″-O-methyl)glucopyranoside]	45.1 ± 2.51 µM	3.837 ± 0.192 * ·10^4 M^−1	3.545 ± 0.025 * ·10^4 M^−1	3.412 ± 0.045 * ·10^4 M^−1	3.182 ± 0.013 * ·10^4 M^−1
–	O=c1c(O)c(-c2ccc(O)c(O)c2)oc2cc(O)cc(O)c12 [Quercetin, 3,3′,4′,5,7-pentahydroxyflavone]	15.7 ± 1.73 µM	17.510 ± 0.152 * ·10^4 M^−1	16.719 ± 0.135 * ·10^4 M^−1	15.632 ± 0.109 * ·10^4 M^−1	13.718 ± 0.058 * ·10^4 M^−1
